The values below come from US9902696B2, “1,4-substituted piperidine derivatives” (Cephalon, Inc., priority 2015, dated 2018).

SMILES strings stand for the structures.

The experiment deals with T1, recombinant human baculovirus-expressed GST-tagged FASN (Homo sapiens, UniProt P49327).
T1 construct: GST
T1 sequence (P49327 whole entry): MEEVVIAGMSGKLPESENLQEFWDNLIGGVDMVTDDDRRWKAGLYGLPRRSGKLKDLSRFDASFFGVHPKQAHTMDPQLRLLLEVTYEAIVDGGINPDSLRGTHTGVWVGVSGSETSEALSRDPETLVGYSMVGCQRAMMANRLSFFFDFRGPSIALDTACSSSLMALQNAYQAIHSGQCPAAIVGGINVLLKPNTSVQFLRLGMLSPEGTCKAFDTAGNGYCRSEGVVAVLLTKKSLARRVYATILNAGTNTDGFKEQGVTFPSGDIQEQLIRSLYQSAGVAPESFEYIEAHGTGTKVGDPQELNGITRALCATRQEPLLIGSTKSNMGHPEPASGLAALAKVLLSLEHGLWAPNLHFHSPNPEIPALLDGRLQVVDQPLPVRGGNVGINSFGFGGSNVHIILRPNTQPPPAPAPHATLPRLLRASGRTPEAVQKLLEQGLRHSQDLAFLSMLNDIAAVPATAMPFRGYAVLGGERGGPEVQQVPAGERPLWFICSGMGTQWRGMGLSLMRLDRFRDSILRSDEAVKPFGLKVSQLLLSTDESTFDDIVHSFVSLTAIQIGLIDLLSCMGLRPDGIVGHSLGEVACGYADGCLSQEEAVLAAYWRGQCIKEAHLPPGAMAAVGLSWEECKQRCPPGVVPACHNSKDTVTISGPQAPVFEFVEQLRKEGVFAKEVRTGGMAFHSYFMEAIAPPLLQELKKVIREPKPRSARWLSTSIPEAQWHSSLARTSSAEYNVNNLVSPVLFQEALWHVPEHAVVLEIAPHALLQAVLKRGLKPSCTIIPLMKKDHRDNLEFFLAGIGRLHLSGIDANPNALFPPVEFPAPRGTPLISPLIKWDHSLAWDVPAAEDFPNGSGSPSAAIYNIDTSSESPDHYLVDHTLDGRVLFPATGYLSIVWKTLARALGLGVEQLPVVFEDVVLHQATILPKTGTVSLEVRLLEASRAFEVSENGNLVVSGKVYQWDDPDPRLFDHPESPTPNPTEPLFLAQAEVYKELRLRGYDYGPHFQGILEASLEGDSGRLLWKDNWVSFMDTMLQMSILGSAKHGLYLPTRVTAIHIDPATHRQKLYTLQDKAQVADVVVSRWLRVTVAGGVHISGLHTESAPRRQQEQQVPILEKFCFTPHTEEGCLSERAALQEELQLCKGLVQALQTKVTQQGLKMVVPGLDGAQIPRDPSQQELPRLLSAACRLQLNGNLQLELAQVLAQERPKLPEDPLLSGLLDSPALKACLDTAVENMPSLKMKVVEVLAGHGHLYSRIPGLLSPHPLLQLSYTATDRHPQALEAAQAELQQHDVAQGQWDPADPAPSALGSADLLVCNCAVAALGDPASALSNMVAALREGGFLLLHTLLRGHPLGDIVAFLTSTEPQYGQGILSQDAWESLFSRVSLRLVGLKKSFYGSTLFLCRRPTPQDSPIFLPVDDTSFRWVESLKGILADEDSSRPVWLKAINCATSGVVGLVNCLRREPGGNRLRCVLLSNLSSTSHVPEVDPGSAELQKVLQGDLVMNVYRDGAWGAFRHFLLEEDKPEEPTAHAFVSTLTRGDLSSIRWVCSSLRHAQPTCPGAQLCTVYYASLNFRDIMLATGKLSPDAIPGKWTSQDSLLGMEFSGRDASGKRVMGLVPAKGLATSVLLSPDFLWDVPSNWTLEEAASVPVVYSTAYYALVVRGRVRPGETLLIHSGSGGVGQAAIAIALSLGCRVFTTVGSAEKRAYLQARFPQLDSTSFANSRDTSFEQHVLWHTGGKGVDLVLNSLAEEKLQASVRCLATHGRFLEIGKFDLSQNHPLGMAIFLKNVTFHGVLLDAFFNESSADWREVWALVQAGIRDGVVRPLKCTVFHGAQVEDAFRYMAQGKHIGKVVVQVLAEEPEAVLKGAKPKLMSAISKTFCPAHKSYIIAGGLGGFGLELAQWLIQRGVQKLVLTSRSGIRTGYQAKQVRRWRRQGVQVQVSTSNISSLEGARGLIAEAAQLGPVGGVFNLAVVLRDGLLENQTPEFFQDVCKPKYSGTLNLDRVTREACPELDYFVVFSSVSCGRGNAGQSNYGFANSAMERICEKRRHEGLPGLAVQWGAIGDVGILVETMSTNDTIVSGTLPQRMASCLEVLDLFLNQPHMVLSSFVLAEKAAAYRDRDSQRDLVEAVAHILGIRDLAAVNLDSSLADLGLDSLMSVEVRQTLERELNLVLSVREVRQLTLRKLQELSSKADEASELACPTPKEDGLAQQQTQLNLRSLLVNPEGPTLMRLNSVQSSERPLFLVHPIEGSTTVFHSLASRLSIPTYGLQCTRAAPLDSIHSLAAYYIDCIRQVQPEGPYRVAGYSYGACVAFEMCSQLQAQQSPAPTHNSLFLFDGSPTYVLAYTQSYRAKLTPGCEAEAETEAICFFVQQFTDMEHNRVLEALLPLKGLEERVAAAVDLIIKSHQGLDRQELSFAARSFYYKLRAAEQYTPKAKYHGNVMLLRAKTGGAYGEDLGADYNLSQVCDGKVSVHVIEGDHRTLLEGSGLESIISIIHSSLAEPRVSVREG
Put plainly: FASN enzyme activity assay, fluorescence-based detection of CoA with CPM. Format: biochemical. To be noted: 5 nM FASN, 150 μM NADPH, 10 μM acetyl-CoA, 25 μM malonyl-CoA, 90 minutes incubation; read-out: IC50 data for Compounds of Formulae I-V/V(a): Activity. The source says:
FASN Enzyme activity may be determined by detecting coenzyme A (CoA), a product of FASN-catalyzed synthesis of palmitate from acetyl-CoA and malonyl-CoA with NADPH as a cofactor. The assay is fluorescence-based and measures the interaction of free CoA with 7-diethylamino-3-(4′-malemimidylphenyl)-4-methylcoumarin (CPM; Life Technologies, CA) as described in Chung et al (2008). The coumarin derivative CPM contains a thiol-reactive maleimide that becomes fluorescent upon interaction with the sulfhydryl group of CoA.
For the example compounds described herein, the reaction was performed in 384-well low volume non-binding plates (Corning, N.Y.) using recombinant human baculovirus-expressed GST-tagged FASN. The 20-μL assay mixture contained 50 mM HEPES (pH 7.5), 5 nM FASN, 150 μM NADPH (Sigma, St. Louis, Mo.), 10 μM acetyl-CoA (Sigma), 25 μM malonyl-CoA (Sigma) and test compound [diluted in dimethyl sulfoxide (DMSO); 0.5% DMSO final in assay after 100 nL addition]. See, Chung et al.; “A fluorescence-based thiol quantification assay for ultra-high-throughput screening for inhibitors of coenzyme A production,” Assay Drug Dev Tech 2008; 6:361-374.
The reaction was initiated by adding malonyl-CoA, followed by incubation for 90 minutes at […]. A stock solution of the CPM reagent was prepared in DMSO at […] and stored at […]. To detect CoA produced in the FASN reaction, the CPM stock was diluted to […] in 70% ethanol and added at 4 μL/well to the assay plate. The reaction mixture was then incubated for 30 minutes. Fluorescence was measured using the EnVision™ 2102 multi-label plate reader (PerkinElmer, Waltham, Mass.) utilizing a general dual mirror, a 390 nm excitation filter and a 530 nm emission filter. Data analysis was performed using ActivityBase (IDBS, Guilford, UK). IC50 values were calculated by plotting the percent inhibition versus log 10 of the concentration of the compound, and fitting to the nonlinear regression sigmoidal dose-response (variable slope) equation in XLFit (IDBS).
For `CCC(=O)N1CCC(Oc2ccc(-c3cnc4ccccc4c3Cl)cc2)CC1` [Example 47, 1-{4-[4-(4-Chloroquinolin-3-yl)-phenoxy]-piperidin-1-yl}-propan-1-one], the IC50 was in the range of 1 to 99 nM.
For `O=C(C1CC1)N1CCC(Oc2ccc(-c3cnc4ccccc4c3Cl)cc2)CC1` [Example 48, {4-[4-(4-Chloroquinolin-3-yl)-phenoxy]-piperidin-1-yl}-cyclopropyl-methanone], the IC50 was 1 to 99 nM.
As for `O=C(C1CCC1)N1CCC(Oc2ccc(-c3cnc4ccccc4c3Cl)cc2)CC1` [Example 49, {4-[4-(4-Chloroquinolin-3-yl)-phenoxy]-piperidin-1-yl}-cyclobutyl-methanone], the figure is 1 to 99 nM.
As for `CCC(=O)N1CCC(Oc2ccc(-c3cnc4ccccc4c3OC)cc2)CC1` [Example 50, 1-{4-[4-(4-Methoxyquinolin-3-yl)-phenoxy]-piperidin-1-yl}-propan-1-one], the figure is 100 to 999 nM.
As for `CCC(=O)N1CCC(Oc2ccc(-c3cnc4ccoc4c3)cc2)CC1` [Example 51, 1-[4-(4-Furo[3,2-b]pyridin-6-yl-phenoxy)-piperidin-1-yl]-propan-1-one], the figure is 1000 to 10000 nM; as for `O=C(C1CC1)N1CCC(Oc2ccc(-c3cnc4ccoc4c3)cc2)CC1` [Example 52, Cyclopropyl-[4-(4-furo[3,2-b]pyridin-6-yl-phenoxy)-piperidin-1-yl]-methanone], 1000 to 10000 nM; as for `CCC(=O)N1CCC(Oc2ccc(-c3cnc4ccc(OC)cc4c3)cc2)CC1` [Example 53, 1-{4-[4-(6-Methoxyquinolin-3-yl)-phenoxy]-piperidin-1-yl}-propan-1-one], 1000 to 10000 nM.
Consider `COc1ccc2ncc(-c3ccc(OC4CCN(C(=O)C5CC5)CC4)cc3)cc2c1` [Example 54, Cyclopropyl-{4-[4-(6-methoxyquinolin-3-yl)-phenoxy]-piperidin-1-yl}-methanone], for which the IC50 is 100 to 999 nM.
As for `CCC(=O)N1CCC(Oc2ccc(-c3cnc4cc(OC)c(OC)cc4c3)cc2)CC1` [Example 55, 1-{4-[4-(6,7-Dimethoxyquinolin-3-yl)-phenoxy]-piperidin-1-yl}-propan-1-one], the figure is 1000 to 10000 nM; as for `COc1cc2cc(-c3ccc(OC4CCN(C(=O)C5CC5)CC4)cc3)cnc2cc1OC` [Example 56, Cyclopropyl-{4-[4-(6,7-dimethoxyquinolin-3-yl)-phenoxy]-piperidin-1-yl}-methanone], 1000 to 10000 nM; as for `CCC(=O)N1CCC(Oc2ccc(-c3cnc4c(OC)cccc4c3)cc2)CC1` [Example 57, 1-{4-[4-(8-Methoxyquinolin-3-yl)-phenoxy]-piperidin-1-yl}-propan-1-one], 100 to 999 nM.
As for `COc1cccc2cc(-c3ccc(OC4CCN(C(=O)C5CC5)CC4)cc3)cnc12` [Example 58, Cyclopropyl-{4-[4-(8-methoxyquinolin-3-yl)-phenoxy]-piperidin-1-yl}-methanone], the figure is 100 to 999 nM.
As for `O=C(C1CC1)N1CCC(Oc2ccc(-c3ccc4cccnc4c3Cl)cc2)CC1` [Example 59, {4-[4-(8-Chloroquinolin-7-yl)-phenoxy]-piperidin-1-yl}-cyclopropyl-methanone], the figure is 1 to 99 nM; as for `CCC(=O)N1CCC(Oc2ccc(-c3cnc4ccccc4c3C)cc2)CC1` [Example 60], 1 to 99 nM.
With `Cc1c(-c2ccc(OC3CCN(C(=O)C4CC4)CC3)cc2)cnc2ccccc12` [Example 61], the IC50 was 1 to 99 nM.
As for `Cc1c(-c2ccc(OC3CCN(C(=O)C4CCC4)CC3)cc2)cnc2ccccc12` [Example 62, Cyclobutyl-{4-[4-(4-methylquinolin-3-yl)-phenoxy]-piperidin-1-yl}-methanone], the figure is 1 to 99 nM; as for `CCC(=O)N1CCC(Oc2ccc(-c3cnc4cc(C)ccc4c3)cc2)CC1` [Example 63, 1-{4-[4-(7-Methylquinolin-3-yl)-phenoxy]-piperidin-1-yl}-propan-1-one], 100 to 999 nM.
As to `Cc1ccc2cc(-c3ccc(OC4CCN(C(=O)C5CC5)CC4)cc3)cnc2c1` [Example 64, Cyclopropyl-{4-[4-(7-methylquinolin-3-yl)-phenoxy]-piperidin-1-yl}-methanone], the IC50 was 100 to 999 nM.
As for `Cc1c(-c2ccc(OC3CCN(C(=O)[C@H]4CCCO4)CC3)cc2)cnc2ccccc12` [Example 65, {4-[4-(4-Methylquinolin-3-yl)-phenoxy]-piperidin-1-yl}-(R)-tetrahydro-furan-2-yl-methanone], the figure is 1 to 99 nM; as for `CCC(=O)N1CCC(Oc2ccc(-c3cnc4ccccc4n3)cc2)CC1` [Example 66, 1-[4-(4-Quinoxalin-2-yl-phenoxy)-piperidin-1-yl]-propan-1-one], 100 to 999 nM.
As for `O=C(C1CC1)N1CCC(Oc2ccc(-c3cnc4ccccc4n3)cc2)CC1` [Example 67, Cyclopropyl-[4-(4-quinoxalin-2-yl-phenoxy)-piperidin-1-yl]-methanone], the figure is 100 to 999 nM; as for `O=C([C@H]1CCCO1)N1CCC(Oc2ccc(-c3cnc4ccccc4n3)cc2)CC1` [Example 68, [4-(4-Quinoxalin-2-yl-phenoxy)-piperidin-1-yl]-(R)-tetrahydrofuran-2-yl-methanone], 1 to 99 nM.
As for `Cc1c(-c2ccc(OC3CCN(C(=O)[C@H]4CCCO4)CC3)cc2)ccc2cccnc12` [Example 69, {4-[4-(8-Methylquinolin-7-yl)-phenoxy]-piperidin-1-yl}-(R)-tetrahydro-furan-2-yl-methanone], the figure is 1 to 99 nM; as for `Cc1c(-c2ccc(OC3CCN(C(=O)[C@@H]4CCCO4)CC3)cc2)ccc2cccnc12` [Example 70, {4-[4-(8-Methylquinolin-7-yl)-phenoxy]-piperidin-1-yl}-(S)-tetrahydro-furan-2-yl-methanone], 1 to 99 nM.
Regarding `O=C([C@H]1CCCO1)N1CCC(Oc2ccc(-c3cnc4ccccc4c3Cl)cc2)CC1` [Example 71, {4-[4-(4-Chloroquinolin-3-yl)-phenoxy]-piperidin-1-yl}-(R)-tetrahydro-furan-2-yl-methanone], the IC50 was in the range of 1 to 99 nM.
As for `CC(=O)C(=O)N1CCC(Oc2ccc(-c3cnc4ccccc4c3C)cc2)CC1` [Example 72, 1-{4-[4-(4-Methylquinolin-3-yl)-phenoxy]-piperidin-1-yl}-propane-1,2-dione], the figure is 1 to 99 nM.
As for `O=C(N1CCC(Oc2ccc(-c3cnc4ccccc4c3)cc2)CC1)N1CCCO1` [Example 73, Isoxazolidin-2-yl-[4-(4-quinolin-3-yl-phenoxy)-piperidin-1-yl]-methanone], the figure is 1 to 99 nM; as for `O=C(N1CCC(Oc2ccc(-c3cc4ccccc4cn3)cc2)CC1)N1CCCO1` [Example 74, [4-(4-Isoquinolin-3-yl-phenoxy)-piperidin-1-yl]-isoxazolidin-2-yl-methanone], 1 to 99 nM.
`Cc1c(-c2ccc(OC3CCN(C(=O)N4CCCO4)CC3)cc2)ccc2cccnc12` [Example 75, Isoxazolidin-2-yl-{4-[4-(8-methyl-quinolin-7-yl)-phenoxy]-piperidin-1-yl}-methanone]: the IC50 fell in the range of 1 to 99 nM.
As for `O=C(N1CCC(Oc2ccc(-c3cnc4ccccc4c3Cl)cc2)CC1)N1CCCO1` [Example 76, {4-[4-(4-Chloroquinolin-3-yl)-phenoxy]-piperidin-1-yl}-isoxazolidin-2-yl-methanone], the figure is 1 to 99 nM; as for `O=C(N1CCC(Oc2ccc(-c3ccc4cccnc4c3Cl)cc2)CC1)N1CCCO1` [Example 77, {4-[4-(8-Chloroquinolin-7-yl)-phenoxy]-piperidin-1-yl}-isoxazolidin-2-yl-methanone], 1 to 99 nM.
As for `Cc1c(-c2ccc(OC3CCN(C(=O)N4CCCO4)CC3)cc2)cnc2ccccc12` [Example 78, Isoxazolidin-2-yl-{4-[4-(4-methylquinolin-3-yl)-phenoxy]-piperidin-1-yl}-methanone], the figure is 1 to 99 nM; as for `COc1c(-c2ccc(OC3CCN(C(=O)N4CCCO4)CC3)cc2)ccc2cccnc12` [Example 79, Isoxazolidin-2-yl-{4-[4-(8-methoxyquinolin-7-yl)-phenoxy]-piperidin-1-yl}-methanone], 1 to 99 nM.
As for `Cc1ccc2cc(-c3ccc(OC4CCN(C(=O)N5CCCO5)CC4)cc3)cnc2c1` [Example 80, Isoxazolidin-2-yl-{4-[4-(7-methylquinolin-3-yl)-phenoxy]-piperidin-1-yl}-methanone], the figure is 1 to 99 nM.
Consider `O=C(N1CCC(Oc2ccc(-c3cnc4ccccc4n3)cc2)CC1)N1CCCO1` [Example 81, Isoxazolidin-2-yl-[4-(4-quinoxalin-2-yl-phenoxy)-piperidin-1-yl]-methanone], for which the IC50 was 1 to 99 nM.
